Experimental findings from US8536183B2, “3-pyridylcarbonyl-piperazinylsulfonyl derivatives” (Convergence Pharmaceuticals Limited, priority 2008, dated 2013) are described below.

For the test, the target named is T1, hCaV2.2 (Homo sapiens, UniProt Q00975).
T1 construct: expressed in transfected cells; plasmids pCIN5-hCaV2.2, pCIH-hCaV β3, pCIP-α2δ1
Nature of the test: hCaV2.2 assay, IonWorks planar array electrophysiology in stably transfected HEK293 cells. It is filed as cell-based. The following applies: current elicited by the 1st depolarising pulse inhibited by 50%; HEK293 cells expressing human CaV2.2 alpha/beta3/alpha2delta1; read-out: mean pIC50 (tonic pIC50) (converted). The procedure: Compounds of the invention may be tested for in vitro biological activity in the hCaV2.2 assay in accordance with the following studies:
Stable cell lines expressing the human CaV2.2 α (als) subunit, along with the human […] and α2δ1 auxiliary subunits were created following sequential transfection and selection of human embryonic kidney (HEK293) cells. HEK293 cells were cultured in Dulbecco's modified Eagles media/F12 media (Invitrogen, Cat #041-95750V) containing 10% foetal bovine serum, with added L-glutamine (2 mM; Invitrogen, Cat #25030-024) and non-essential amino acids (5%; Invitrogen, Cat #11140-035). Initially HEK293 cells were transfected with two plasmid vectors for expression of the hCaV2.2 α subunit (pCIN5-hCaV2.2 which carries a neomycin resistance marker) and the hCaV β3 subunit (pCIH-hCaV β3 which carries a hygromycin resistance marker). Clonal cell lines were isolated following selection in media supplemented with 0.4 mg ml^−1 Geneticin G418 (Invitrogen, Cat #10131-027) and 0.1 mg ml^1 hygromycin (Invitrogen, Cat #10687-010). These clonal cell lines were assessed for Cav2.2α/β3-mediated current expression using the IonWorks planar array electrophysiology technology (described below). A clonal line was identified that gave a reasonable level of functional Cav2.2α/β3 current expression. This cell line was transfected with a plasmid vector for expression of the human […] subunit (pCIP-α2δ1 which carries a puromycin resistance marker) and clonal cell lines isolated following selection in media containing 0.62 μg ml^−1 puromycin (Sigma, Cat #P-7255), in addition to 0.4 mg ml^−1 Geneticin G418 and 0.1 mg ml^−1 hygromycin. Several cell lines were identified that gave robust levels of Cav2.2α/β3/α2δ1-mediated current expression and one of these was selected for compound profiling. Expression of all three subunits within this cell line was continuously maintained by the inclusion of G418 (0.4 mg ml^−1), hygromycin (0.1 mg ml^−1) and puromycin (0.62 μg ml^−1). Cells were maintained at 37° C. in a humidified environment containing 5% CO2 in air. Cells were liberated from the T175 culture flasks for passage and harvesting using TrpLE (Invitrogen, Cat #12604-013).
Cells were grown to 30-60% confluence in T175 flasks and maintained at 30° C. for 24 hrs prior to recording. Cells were lifted by removing the growth media, washing with Ca^2+ free PBS (Invitrogen, Cat #14190-094) and incubating with 3 ml of warmed (37° C.) TrpLE (Invitrogen, Cat #12604-013) for 6 minutes. Lifted cells were suspended in 10 ml of extracellular buffer. Cell suspension was then placed into a 15 ml tube and centrifuged for 2 minutes at 700 rpm. After centrifugation, the supernatant was removed and the cell pellet was resuspended in 4.5 ml of extracellular solution.
Currents were recorded at room temperature (21-23° C.) using the IonWorks planar array electrophysiology technology (Molecular Devices Corp.). Stimulation protocols and data acquisition were carried out using a microcomputer (Dell Pentium 4). In order to determine planar electrode hole resistances (Rp), a 10 mV, 160 ms potential difference was applied across each hole. These measurements were performed before cell addition. After cell addition a seal test was performed prior to antibiotic (amphotericin) circulation to achieve intracellular access. Leak subtraction was conducted in all experiments by applying a 160 ms hyperpolarizing (10 mV) prepulse 200 ms before the test pulses to measure leak conductance. Test pulses stepping from the holding potential (VH) of −90 mV to +10 mV were applied for 20 ms and repeated 10 times at a frequency of 10 Hz. In all experiments, the test pulse protocol was performed in the absence (pre-read) and presence (post-read) of a compound. Pre- and post-reads were separated by a compound addition followed by a 3-3.5 min incubation.
The intracellular solution contained the following (in mM): K-gluconate 120, KCl 20 mM, MgCl2 5, EGTA 5, HEPES 10, adjusted to pH 7.3. […]
On the technique in general: The patch-clamp technique gives a direct electrical read-out from membranes.

T1 sequence (Q00975 whole entry): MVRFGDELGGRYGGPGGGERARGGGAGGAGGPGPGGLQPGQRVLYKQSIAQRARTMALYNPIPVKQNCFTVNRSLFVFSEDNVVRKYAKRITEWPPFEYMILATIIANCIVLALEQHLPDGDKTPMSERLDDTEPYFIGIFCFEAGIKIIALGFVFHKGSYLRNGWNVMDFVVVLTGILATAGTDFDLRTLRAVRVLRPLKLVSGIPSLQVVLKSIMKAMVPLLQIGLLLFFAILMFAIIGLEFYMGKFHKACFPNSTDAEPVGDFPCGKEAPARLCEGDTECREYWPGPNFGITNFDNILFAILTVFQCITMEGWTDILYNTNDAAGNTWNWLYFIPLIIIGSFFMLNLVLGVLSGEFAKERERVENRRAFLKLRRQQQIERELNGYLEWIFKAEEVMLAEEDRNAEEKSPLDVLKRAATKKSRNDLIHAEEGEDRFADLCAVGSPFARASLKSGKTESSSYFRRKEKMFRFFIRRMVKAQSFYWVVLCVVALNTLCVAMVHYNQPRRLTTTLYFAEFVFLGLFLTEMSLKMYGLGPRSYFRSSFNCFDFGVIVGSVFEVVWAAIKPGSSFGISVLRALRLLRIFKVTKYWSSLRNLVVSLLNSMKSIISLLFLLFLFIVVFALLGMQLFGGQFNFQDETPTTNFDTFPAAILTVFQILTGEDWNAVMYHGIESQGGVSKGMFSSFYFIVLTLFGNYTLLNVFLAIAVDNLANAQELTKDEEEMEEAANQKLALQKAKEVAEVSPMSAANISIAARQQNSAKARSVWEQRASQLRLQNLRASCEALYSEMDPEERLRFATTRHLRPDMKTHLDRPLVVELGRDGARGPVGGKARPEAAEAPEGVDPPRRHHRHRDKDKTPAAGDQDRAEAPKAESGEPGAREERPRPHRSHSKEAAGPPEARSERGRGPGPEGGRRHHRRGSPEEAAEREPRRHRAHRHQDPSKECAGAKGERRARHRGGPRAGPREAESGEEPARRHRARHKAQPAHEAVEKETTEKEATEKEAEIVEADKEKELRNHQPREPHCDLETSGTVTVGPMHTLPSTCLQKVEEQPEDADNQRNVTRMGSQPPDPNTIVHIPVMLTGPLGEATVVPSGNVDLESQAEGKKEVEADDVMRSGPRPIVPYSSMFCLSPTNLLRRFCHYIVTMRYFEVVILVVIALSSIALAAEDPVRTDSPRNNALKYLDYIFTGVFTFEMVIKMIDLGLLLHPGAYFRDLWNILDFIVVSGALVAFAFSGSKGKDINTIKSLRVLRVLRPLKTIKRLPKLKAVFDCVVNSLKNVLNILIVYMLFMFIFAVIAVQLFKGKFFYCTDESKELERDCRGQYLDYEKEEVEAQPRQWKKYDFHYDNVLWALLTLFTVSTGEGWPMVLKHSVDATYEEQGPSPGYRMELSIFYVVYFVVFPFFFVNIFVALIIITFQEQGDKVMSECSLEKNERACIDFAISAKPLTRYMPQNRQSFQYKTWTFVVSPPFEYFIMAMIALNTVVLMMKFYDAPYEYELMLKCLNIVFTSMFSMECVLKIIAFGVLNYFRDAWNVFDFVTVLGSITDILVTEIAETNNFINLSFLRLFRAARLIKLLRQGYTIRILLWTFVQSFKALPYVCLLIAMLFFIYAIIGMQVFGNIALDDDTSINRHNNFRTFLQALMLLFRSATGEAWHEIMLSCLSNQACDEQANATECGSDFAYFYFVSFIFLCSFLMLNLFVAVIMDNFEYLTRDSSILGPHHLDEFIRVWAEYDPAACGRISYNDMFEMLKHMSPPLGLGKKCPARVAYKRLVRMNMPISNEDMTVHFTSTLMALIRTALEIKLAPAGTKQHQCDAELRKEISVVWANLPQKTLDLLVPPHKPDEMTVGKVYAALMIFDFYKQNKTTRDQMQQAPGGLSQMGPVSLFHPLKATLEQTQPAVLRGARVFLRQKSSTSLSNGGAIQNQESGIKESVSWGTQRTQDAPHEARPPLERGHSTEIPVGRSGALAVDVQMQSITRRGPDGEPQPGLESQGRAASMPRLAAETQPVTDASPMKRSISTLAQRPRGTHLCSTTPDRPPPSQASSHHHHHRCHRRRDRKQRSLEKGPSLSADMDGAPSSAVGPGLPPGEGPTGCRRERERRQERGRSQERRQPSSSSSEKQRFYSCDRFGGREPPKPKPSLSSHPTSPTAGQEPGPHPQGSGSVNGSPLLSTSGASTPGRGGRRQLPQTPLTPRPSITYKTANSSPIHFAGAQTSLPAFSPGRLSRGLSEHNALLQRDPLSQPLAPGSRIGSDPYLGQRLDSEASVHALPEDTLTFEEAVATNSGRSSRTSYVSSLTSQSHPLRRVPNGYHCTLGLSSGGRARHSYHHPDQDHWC

For `Cc1ccc(C(=O)N2CCN(S(=O)(=O)c3ccc(C#N)cc3C)C[C@H]2C)cn1` [Example 63, 3-methyl-4-({(3R)-3-methyl-4-[(6-methyl-3-pyridinyl)carbonyl]-1-piperazinyl}sulfonyl)benzo-nitrile], the IC50 was no less than 31.6 µM.
Take `Cc1ncccc1C(=O)N1CCN(S(=O)(=O)c2ccc(OC(F)(F)F)cc2)C[C@@H]1C` [Example 64, (2S)-2-methyl-1-[(2-methyl-3-pyridinyl)carbonyl]-4-({4-[(trifluoromethyl)oxy]phenyl}sulfonyl)piperazine]: the IC50 was no less than 31.6 µM.
Next, `Cc1ncccc1C(=O)N1CCN(S(=O)(=O)c2ccc(OC(F)(F)F)cc2)C[C@H]1C` [Example 65, (2R)-2-methyl-1-[(2-methyl-3-pyridinyl)carbonyl]-4-({4-[(trifluoromethyl)oxy]phenyl}sulfonyl)piperazine]: no less than 31.6 µM; `Nc1ccc(C(=O)N2CCN(S(=O)(=O)c3ccc(C(F)(F)F)cc3)CC2)cn1` [Example 66, 5-[(4-{[4-(trifluoromethyl)phenyl]sulfon-yl}-1-piperazinyl)carbonyl]-2-pyridinamine]: no less than 31.6 µM.
Next, `Cc1ccc(C(=O)N2CCN(S(=O)(=O)c3ccc(C#N)cc3C)C[C@@H]2C)c(C)n1` [Example 67, 4-({(3S)-4-[(2,6-dimethyl-3-pyridinyl)carbonyl]-3-methyl-1-piperazinyl}sulfonyl)-3-methylbenzonitrile]: no less than 31.6 µM.
Next, `Cc1cc(C)c(C(=O)N2CCN(S(=O)(=O)c3ccc(C#N)cc3C)C[C@@H]2C)cn1` [Example 68, 4-({(3S)-4-[(4,6-dimethyl-3-pyridinyl)carbonyl]-3-methyl-1-piperazinyl}sulfonyl)-3-methylbenzonitrile]: no less than 31.6 µM; `O=C(c1ccc(N2CCCC2)nc1)N1CCN(S(=O)(=O)c2ccc(C(F)(F)F)cc2)CC1` [Example 69, 1-{[6-(1-pyrrolidinyl)-3-pyridinyl]carbonyl}-4-{[4-(trifluoromethyl)phenyl]sulfon-yl}piperazine]: no less than 31.6 µM; `O=C(c1ccc(NC2CCOCC2)nc1)N1CCN(S(=O)(=O)c2ccc(C(F)(F)F)cc2)CC1` [Example 70, N-(tetrahydro-2H-pyran-4-yl)-5-[(4-{[4-(trifluoromethyl)phenyl]sulfon-yl}-1-piperazinyl)carbonyl]-2-pyridinamine]: no less than 31.6 µM.
In the case of `Cc1cc(C#N)ccc1S(=O)(=O)N1CCN(C(=O)c2ccc(N(C)C)nc2)[C@@H](C)C1` [Example 71, 4-[((3S)-4-{[6-(dimethylamino)-3-pyridinyl]carbonyl}-3-methyl-1-piperazinyl)sulfonyl]-3-methylbenzonitrile], the IC50 is no less than 31.6 µM.
Next, `Cc1ccc(C(=O)N2CCN(S(=O)(=O)c3ccc(C#N)cc3)C[C@@H]2C)cn1` [Example 72, 4-({(3S)-3-methyl-4-[(6-methyl-3-pyridinyl)carbonyl]-1-piperazinyl}sulfonyl)benzo-nitrile]: no less than 31.6 µM; `Cc1ccc(C(=O)N2CCN(S(=O)(=O)c3ccc(OC(F)F)cc3)CC2)cn1` [Example 73, 1-({4-[(difluoromethyl)oxy]phenyl}sulfonyl)-4-[(6-methyl-3-pyridinyl)carbonyl]piperazine]: no less than 31.6 µM.
To `Cc1ccc(C(=O)N2CCN(S(=O)(=O)c3ccc(C(F)(F)F)cc3C)CC2)cn1` [Example 74, 1-[(6-methyl-3-pyridinyl)carbonyl]-4-{[2-methyl-4-(trifluoromethyl)phenyl]sulfonyl}piperazine] belongs no less than 31.6 µM.
